Experimental data as given in patent US5807899A, “Triphenylethylenes, process for their production, pharmaceutical preparations that contain these triphenylethylenes as well as their use for the production of pharmaceutical agents” (Schering Aktiengesellschaft, priority 1995, dated 1998).

Columns and labels:
HeLa cell line = assay: Transactivation assay for antiestrogenic action, HeLa cell line; format: cell-based; conditions: Homo sapiens, antiestrogenic action in transactivation assay
Method: The compounds of general formula I according to this application are distinguished by a new type of side chain on the phenoxy radical in comparison to the already known tamoxifen derivatives. […] As mentioned an estrogenic partial action can also be present in the-compounds according to the invention. The antiestrogenic and optionally estrogenic action of the compounds according to the invention was determined in a transactivation assay [Demirpence, E.; Duchesne, M.-J.; Badia, E.; Gagne, D.; and Pons, M.: MVLN Cells: A Bioluminescent MCF-7-Derived Cell Line to Study the Modulation of Estrogenic Activity; J. Steroid Molec. Biol.. Vol. 46, No. 3, 355-364 (1993) as well as Savouret, J. F.; Bailly, A.; Misrahi, M.; Rauch, C.; Redeuilh, G.; Chauchereau, A. and Milgrom, E.: Characterization of the Hormone Responsive Element Involved in the Regulation of the Progesterone Receptor Gene, The EMBO Journal Vol. 10, No. 7, 1875-1883 (1991)].
The IC50 values for the new compounds lie in the nanomolar range. In the HeLa cell line, the following IC50 values are produced for the compounds of Examples 5, 12, 13 and 16 (test implementation according to the bibliographic references indicated above): […]

[1] = system: estrogens (antiestrogenic / estrogenic activity); conditions: reference compound; cited from earlier work

Row | Compound | IC50 (HeLa cell line) [nM] | antiestrogenic / estrogenic profile of tamoxifen [1]
1 | CCC(=C(c1ccc(O)cc1)c1ccc(OCCCCC[S+]([O-])Cc2ccccn2)cc1)c1ccccc1 (centres unmarked) [Example 12, 4-((E,Z)-2-Phenyl-1-{4-[5-(pyridin-2-ylmethanesulfinyl)-pentyloxy]-phenyl}-but-1-enyl)-phenol] | 2.8 | –
2 | CCC(=C(c1ccc(I)cc1)c1ccc(OCCCCC[S+]([O-])CCCC(F)(F)C(F)(F)F)cc1)c1ccccc1 (centres unmarked) [Example 15, (5-{4-[(E,Z)-1-(4-Iodophenyl)-2-phenyl-but-1-enyl]-phenoxy}-pentyl)-(4,4,5,5,5-pentafluoropentyl)-sulfoxide] | 17 | –
3 | CCC(=C(c1ccc(O)cc1)c1ccc(OCCCCCSCc2ccccn2)cc1)c1ccccc1 [Example 11, 4-((E,Z)-2-Phenyl-1-{4-[5-(pyridin-2-ylmethylsulfidyl)-pentyloxy]-phenyl}-but-1-enyl)-phenol] | 5 | –
4 | CCC(=C(c1ccc(O)cc1)c1ccc(OCCCCC[S+]([O-])CCCC(F)(F)C(F)(F)F)cc1)c1ccccc1 (centres unmarked) [Example 5, 4-(1-{4-[5-(4,4,5,5,5-Pentafluoropentanesulfinyl)-pentyloxy]-phenyl}-2-phenyl-but-1-enyl)-phenol] | 1 | –
5 | CC/C(=C(\c1ccccc1)c1ccc(OCCN(C)C)cc1)c1ccccc1 [tamoxifen] | – | antiestrogens with estrogenic partial action
